Measured values from ChEMBL document CHEMBL4130358, “Chemoselective synthesis and biological evaluation of arylated 2-(Trifluoromethyl) quinolines as nucleotide pyrophosphatase (NPPs) inhibitors” (Eur J Med Chem, 2017).

Experiments:
[1] = target: T1, Ectonucleotide pyrophosphatase/phosphodiesterase family member 3 (Homo sapiens, UniProt O14638); test: Inhibition of human full length NPP3 expressed in African green monkey COS7 cell membrane fraction using p-nitrophenyl-5'-thymidine monophosphate as substrate preincubated for 10 mins followed by substrate addition measured after 30 mins
T1 sequence (O14638 whole entry): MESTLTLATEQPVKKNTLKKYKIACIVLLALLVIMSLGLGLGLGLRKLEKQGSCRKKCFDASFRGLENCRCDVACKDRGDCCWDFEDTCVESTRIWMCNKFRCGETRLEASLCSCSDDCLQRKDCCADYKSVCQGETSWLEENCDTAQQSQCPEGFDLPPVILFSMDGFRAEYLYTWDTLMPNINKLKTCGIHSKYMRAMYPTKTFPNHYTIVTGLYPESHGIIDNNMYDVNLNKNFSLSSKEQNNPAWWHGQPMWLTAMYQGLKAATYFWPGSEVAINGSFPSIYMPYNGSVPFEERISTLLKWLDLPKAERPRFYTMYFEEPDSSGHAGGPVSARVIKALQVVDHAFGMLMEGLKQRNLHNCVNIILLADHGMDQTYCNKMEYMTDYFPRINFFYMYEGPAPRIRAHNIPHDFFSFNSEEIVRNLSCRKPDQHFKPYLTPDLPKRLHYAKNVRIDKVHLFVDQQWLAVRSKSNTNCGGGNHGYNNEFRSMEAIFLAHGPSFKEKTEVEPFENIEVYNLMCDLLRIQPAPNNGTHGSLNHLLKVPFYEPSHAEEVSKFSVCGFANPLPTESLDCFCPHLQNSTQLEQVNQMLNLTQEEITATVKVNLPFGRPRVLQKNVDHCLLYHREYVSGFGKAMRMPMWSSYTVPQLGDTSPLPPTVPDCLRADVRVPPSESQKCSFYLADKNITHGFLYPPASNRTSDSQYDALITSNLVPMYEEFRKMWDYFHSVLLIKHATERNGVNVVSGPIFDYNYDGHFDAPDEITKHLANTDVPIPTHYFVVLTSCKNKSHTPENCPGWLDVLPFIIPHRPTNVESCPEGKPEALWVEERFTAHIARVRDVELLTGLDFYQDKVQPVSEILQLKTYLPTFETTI

[2] = target: T2, Ectonucleotide pyrophosphatase/phosphodiesterase family member 1 (Homo sapiens, UniProt P22413); test: Inhibition of human full length NPP1 expressed in African green monkey COS7 cell membrane fraction using p-nitrophenyl-5'-thymidine monophosphate as substrate preincubated for 10 mins followed by substrate addition measured after 30 mins
T2 sequence (P22413 whole entry): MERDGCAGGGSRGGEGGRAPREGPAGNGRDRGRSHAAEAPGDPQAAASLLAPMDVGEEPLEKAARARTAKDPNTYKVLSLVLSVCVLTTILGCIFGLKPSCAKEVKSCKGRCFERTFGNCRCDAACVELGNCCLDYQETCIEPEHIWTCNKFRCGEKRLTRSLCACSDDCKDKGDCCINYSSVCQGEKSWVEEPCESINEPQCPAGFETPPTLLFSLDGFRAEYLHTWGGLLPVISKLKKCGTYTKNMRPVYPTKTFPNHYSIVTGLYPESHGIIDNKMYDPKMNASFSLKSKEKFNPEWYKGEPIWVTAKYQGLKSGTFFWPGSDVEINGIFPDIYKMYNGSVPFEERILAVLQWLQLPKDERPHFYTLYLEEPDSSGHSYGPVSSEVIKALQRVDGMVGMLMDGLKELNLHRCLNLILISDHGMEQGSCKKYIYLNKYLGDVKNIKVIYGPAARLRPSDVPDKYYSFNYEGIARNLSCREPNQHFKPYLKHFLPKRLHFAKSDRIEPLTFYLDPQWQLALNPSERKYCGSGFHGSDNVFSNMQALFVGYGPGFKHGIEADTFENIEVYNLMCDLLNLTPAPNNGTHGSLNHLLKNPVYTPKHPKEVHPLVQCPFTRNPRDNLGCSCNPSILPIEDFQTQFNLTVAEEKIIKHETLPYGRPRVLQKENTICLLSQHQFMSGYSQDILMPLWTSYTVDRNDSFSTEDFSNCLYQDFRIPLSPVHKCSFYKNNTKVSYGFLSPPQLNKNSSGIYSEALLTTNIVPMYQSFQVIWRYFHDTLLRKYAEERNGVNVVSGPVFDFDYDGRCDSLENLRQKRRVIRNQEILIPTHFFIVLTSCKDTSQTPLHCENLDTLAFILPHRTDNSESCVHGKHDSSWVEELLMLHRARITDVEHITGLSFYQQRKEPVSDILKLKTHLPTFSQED

[3] = target: T3, Ectonucleoside triphosphate diphosphohydrolase 2 (Homo sapiens, UniProt Q9Y5L3); test: Inhibition of human NTPDase2 expressed in African green monkey COS7 cell membrane fraction using ATP as substrate preincubated for 10 mins followed by substrate addition measured after 10 mins by malachite green reagent-based assay
T3 sequence (Q9Y5L3 whole entry): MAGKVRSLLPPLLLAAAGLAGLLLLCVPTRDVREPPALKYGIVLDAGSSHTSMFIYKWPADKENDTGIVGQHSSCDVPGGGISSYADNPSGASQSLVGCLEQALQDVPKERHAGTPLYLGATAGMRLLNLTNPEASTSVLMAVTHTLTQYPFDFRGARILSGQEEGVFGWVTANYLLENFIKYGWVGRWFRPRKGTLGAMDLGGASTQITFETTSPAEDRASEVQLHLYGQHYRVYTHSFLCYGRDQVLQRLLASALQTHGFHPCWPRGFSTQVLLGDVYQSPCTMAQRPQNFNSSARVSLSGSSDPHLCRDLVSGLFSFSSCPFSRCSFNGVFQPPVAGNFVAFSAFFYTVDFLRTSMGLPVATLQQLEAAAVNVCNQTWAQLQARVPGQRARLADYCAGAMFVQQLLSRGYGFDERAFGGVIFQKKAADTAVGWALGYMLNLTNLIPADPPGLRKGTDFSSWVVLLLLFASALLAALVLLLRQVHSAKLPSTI

[4] = target: T4, Ectonucleoside triphosphate diphosphohydrolase 8 (Homo sapiens, UniProt Q5MY95); test: Inhibition of human NTPDase8 expressed in African green monkey COS7 cell membrane fraction using ATP as substrate preincubated for 10 mins followed by substrate addition measured after 10 mins by malachite green reagent-based assay
T4 sequence (Q5MY95 whole entry): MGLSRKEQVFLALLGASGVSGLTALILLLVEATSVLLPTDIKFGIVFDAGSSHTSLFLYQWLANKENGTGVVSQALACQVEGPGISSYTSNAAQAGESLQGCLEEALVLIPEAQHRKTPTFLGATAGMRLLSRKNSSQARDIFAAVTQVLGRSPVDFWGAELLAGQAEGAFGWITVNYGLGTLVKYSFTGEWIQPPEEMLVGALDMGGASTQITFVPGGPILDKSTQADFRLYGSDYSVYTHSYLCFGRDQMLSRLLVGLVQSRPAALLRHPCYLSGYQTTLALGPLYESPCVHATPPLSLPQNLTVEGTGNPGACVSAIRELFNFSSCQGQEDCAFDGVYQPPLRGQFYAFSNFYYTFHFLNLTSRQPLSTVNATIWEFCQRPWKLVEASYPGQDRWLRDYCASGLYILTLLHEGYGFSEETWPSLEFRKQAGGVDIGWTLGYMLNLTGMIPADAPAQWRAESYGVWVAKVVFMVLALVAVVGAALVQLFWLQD

[5] = target: T5, Ectonucleoside triphosphate diphosphohydrolase 3 (Homo sapiens, UniProt O75355); test: Inhibition of human NTPDase3 expressed in African green monkey COS7 cell membrane fraction using ATP as substrate preincubated for 10 mins followed by substrate addition measured after 10 mins by malachite green reagent-based assay
T5 sequence (O75355 whole entry): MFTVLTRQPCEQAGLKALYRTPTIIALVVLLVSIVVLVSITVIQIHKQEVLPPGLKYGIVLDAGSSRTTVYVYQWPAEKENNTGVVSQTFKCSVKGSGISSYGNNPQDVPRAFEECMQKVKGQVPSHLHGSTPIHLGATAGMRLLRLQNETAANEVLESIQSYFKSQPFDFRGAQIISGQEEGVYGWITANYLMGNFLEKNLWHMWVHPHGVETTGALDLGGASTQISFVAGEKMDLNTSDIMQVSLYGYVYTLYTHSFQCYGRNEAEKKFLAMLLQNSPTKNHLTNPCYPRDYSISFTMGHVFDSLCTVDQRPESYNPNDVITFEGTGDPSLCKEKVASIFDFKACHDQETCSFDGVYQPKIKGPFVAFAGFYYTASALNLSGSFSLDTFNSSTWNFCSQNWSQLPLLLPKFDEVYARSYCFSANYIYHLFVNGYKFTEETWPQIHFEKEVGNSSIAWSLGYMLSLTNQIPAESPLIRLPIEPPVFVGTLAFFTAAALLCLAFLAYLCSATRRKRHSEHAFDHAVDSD

[6] = target: T6, Ectonucleoside triphosphate diphosphohydrolase 1 (Homo sapiens, UniProt P49961); test: Inhibition of human NTPDase1 expressed in African green monkey COS7 cell membrane fraction using ATP as substrate preincubated for 10 mins followed by substrate addition measured after 10 mins by malachite green reagent-based assay
T6 sequence (P49961 whole entry): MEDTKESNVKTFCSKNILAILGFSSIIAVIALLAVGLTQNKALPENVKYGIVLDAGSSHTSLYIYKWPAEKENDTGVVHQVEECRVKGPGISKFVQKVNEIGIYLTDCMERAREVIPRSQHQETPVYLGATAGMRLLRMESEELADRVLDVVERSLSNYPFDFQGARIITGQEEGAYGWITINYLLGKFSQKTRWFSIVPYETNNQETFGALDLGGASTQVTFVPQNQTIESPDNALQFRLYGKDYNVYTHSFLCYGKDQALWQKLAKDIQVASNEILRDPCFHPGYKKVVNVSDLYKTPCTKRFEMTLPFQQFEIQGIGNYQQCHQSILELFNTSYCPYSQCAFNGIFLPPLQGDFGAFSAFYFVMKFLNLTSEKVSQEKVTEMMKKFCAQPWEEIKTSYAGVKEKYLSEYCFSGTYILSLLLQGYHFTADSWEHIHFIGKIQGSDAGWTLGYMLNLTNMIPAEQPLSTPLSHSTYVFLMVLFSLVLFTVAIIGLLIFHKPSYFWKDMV

Structure (SMILES) | IC50 [1] | IC50 [2] | IC50 [3] | IC50 [4] | IC50 [5] | IC50 [6]
FC(F)(F)c1nc2c(Br)cccc2c(Cl)c1Br | 0.39 µM | 7.65 µM |  |  |  | 
Cc1cccc(-c2c(C(F)(F)F)nc3c(-c4cccc(C)c4)cccc3c2-c2cccc(C)c2)c1 | > 100 µM | 20.7 µM | > 300 µM | > 300 µM | > 300 µM | > 300 µM
FC(F)(F)c1nc2c(-c3ccccc3)cccc2c(Cl)c1-c1ccccc1 | > 100 µM | 2.81 µM | > 300 µM | > 300 µM | > 300 µM | > 300 µM
COc1ccc(OC)c(-c2cccc3c(Cl)c(Br)c(C(F)(F)F)nc23)c1 | 0.36 µM | 0.25 µM |  |  |  | 
Fc1ccc(-c2c(C(F)(F)F)nc3c(-c4ccc(F)cc4)cccc3c2-c2ccc(F)cc2)cc1 | > 100 µM | 0.51 µM |  |  |  | 
N#Cc1cccc(-c2cccc3c(Cl)c(Br)c(C(F)(F)F)nc23)c1 | > 100 µM | 0.35 µM |  |  |  | 
FC(F)(F)c1nc2c(-c3ccsc3)cccc2c(Cl)c1Br | > 100 µM | 5.76 µM | > 300 µM | > 300 µM | > 300 µM | > 300 µM
FC(F)(F)c1nc2c(-c3ccccc3)cccc2c(-c2ccccc2)c1-c1ccccc1 | > 100 µM | 0.18 µM |  |  |  | 
FC(F)(F)c1ccc(-c2cccc3c(Cl)c(Br)c(C(F)(F)F)nc23)cc1 | > 100 µM | 0.31 µM |  |  |  | 
COc1ccc(-c2cccc3c(Cl)c(Br)c(C(F)(F)F)nc23)cc1 | 1.14 µM | 0.39 µM |  |  |  | 
Cc1ccc(-c2c(C(F)(F)F)nc3c(-c4ccc(C)cc4)cccc3c2-c2ccc(C)cc2)cc1 | > 100 µM | 0.73 µM |  |  |  | 
COc1ccc(-c2c(C(F)(F)F)nc3c(-c4ccc(OC)cc4)cccc3c2-c2ccc(OC)cc2)cc1 | > 100 µM | 9.87 µM | > 300 µM | > 300 µM | > 300 µM | > 300 µM
O=c1c(Br)c(C(F)(F)F)[nH]c2c(Br)cccc12 | 2.42 µM | 0.63 µM |  |  |  | 
Cc1ccc(C(=O)Nc2ccc(S(=O)(=O)O)c3cc(S(=O)(=O)O)cc(S(=O)(=O)O)c23)cc1NC(=O)c1cccc(NC(=O)Nc2cccc(C(=O)Nc3cc(C(=O)Nc4ccc(S(=O)(=O)O)c5cc(S(=O)(=O)O)cc(S(=O)(=O)O)c45)ccc3C)c2)c1 [SURAMIN] |  |  |  | > 100 µM |  | 
